Entries after “also recorded” stand apart in the source; their conditions may differ.
Assays:
[1] = cited from earlier work; for reducing strength: reduction of a disulfide bond
[2] = stability of aqueous solution of the dithiol; type: physicochemical; conditions: over several days, protected from atmospheric oxygen
[3] = thiol/disulfide equilibrium (reduction strength) relative to oxidized mercaptoethanol
From the text: In addition to a fast rate of reduction, a useful dithiol should be strongly reducing in order to reduce disulfides quantitatively and to maintain thiols in the reduced state without the inconvenience of mixed disulfides. […] We have used this equilibrium to evaluate several dithiols in terms of their reduction strength.
(§1) The following is taken from Lamoureux and Whitesides, 58 J. Org. Chem. 633, 1993, hereby incorporated by reference herein. The general methodology and equations used for analysis are presented there, and are not repeated here.

pKa of the dithiol = type: physicochemical
From the text: as §1

Compound | rate of reduction (in words), pH=7 ([1]; pH=7, background statement) | reducing strength ([1]; background statement) | rate of reduction (in words) ([1]; background statement, pH not given) | signs of decomposition of aqueous solution [2] | equilibrium constant relative to oxidized mercaptoethanol [3] | pKa (pKa of the dithiol)
O[C@H](CS)[C@H](O)CS (racemic) [DTT, Dithiothreitol] | kinetically slow | strong reductant; also recorded: one of the most strongly reducing dithiols |  |  |  | 
OCCS [Mercaptoethanol] |  | weak | slow |  |  | 
O=S(=O)(CCS)CCS [bis(2-mercaptoethyl) sulfone, Bis(2-mercaptoethyl) sulfone] |  |  |  | no signs of decomposition | about 63 | ~7.9

Reference: patent US5460806A, “Bis(2-mercaptoethyl) sulfone” (President and Fellows of Harvard College, priority 1993, dated 1995)
